Target: T1, RzmA-Cs (Mycetohabitans rhizoxinica, UniProt E5ATN9, R148A)
T1 construct: gene RBRH_01504; excised starter condensation (Cs) domain, residues 1-431, pET28a, E. coli BL21(DE3), N-terminal His6 tag removed by thrombin, size-exclusion purified
T1 sequence (E5ATN9 1-431 R148A): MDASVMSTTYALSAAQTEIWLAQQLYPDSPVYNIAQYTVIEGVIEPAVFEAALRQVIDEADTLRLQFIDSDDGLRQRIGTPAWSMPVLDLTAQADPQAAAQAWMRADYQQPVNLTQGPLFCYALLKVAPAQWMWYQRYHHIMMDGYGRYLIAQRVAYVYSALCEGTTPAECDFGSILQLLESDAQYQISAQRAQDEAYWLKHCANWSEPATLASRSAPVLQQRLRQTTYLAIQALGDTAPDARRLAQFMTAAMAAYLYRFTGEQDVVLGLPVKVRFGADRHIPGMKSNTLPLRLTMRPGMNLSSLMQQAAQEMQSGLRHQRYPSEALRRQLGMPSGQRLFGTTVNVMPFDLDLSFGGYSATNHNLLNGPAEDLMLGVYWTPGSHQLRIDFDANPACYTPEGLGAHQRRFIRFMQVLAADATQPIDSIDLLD
Experiment: isothermal titration calorimetry
Assay type: binding

CCCCCCCC(=O)SCCNC(=O)CCNC(=O)[C@H](O)C(C)(C)COP(=O)(O)OP(=O)(O)OC[C@H]1O[C@@H](n2cnc3c(N)ncnc32)[C@H](O)[C@@H]1OP(=O)(O)O [3d, C8-CoA]
Kd: ~300 nM

— PMC7804268, “Engineering and elucidation of the lipoinitiation process in nonribosomal peptide biosynthesis” (Nature Communications, 2021)
